{"source": "patent US8569448B2", "about": "“NMDAR biomarkers for diagnosis and treatment of traumatic brain injury and other disorders” (Grace Laboratories, LLC, priority 2006, dated 2013)", "key": {"[1]": {"tested_on": "isolated giant neurons of mollusk Planorbarius Corneus", "assay": "physiological functions in isolated giant neurons of mollusk", "type": "cell-based", "text": "Several double derivatives of glutamic acid {E-(CH2)n-E} or containing amino acids (glycine, lysine, histidine, and/or arginine, {E-amino acid-E}) including chelates (Fe2+, Mg2+, or Zn2+) were synthesized and used to study their physiological functions in isolated giant neurons of mollusk Planorbarius Corneus. […] The effect of these substances depended on the length of the amino acid chain (CH2)n between the residues of glutamic acid.\nThe Hill coefficient (nH) is a central parameter in the study of ligand-protein interactions, which measures the degree of co-operativity between subunits that bind the ligand in multi-subunit proteins. The most common usage of nH is as an estimate of the minimal number of interacting binding sites in positively co-operating systems. The Hill coefficient for tested compounds was about 0.75."}, "[2]": {"tested_on": "patients who had suffered an acute ischemic stroke", "details": "sublingual 2.0 g/day, five consecutive days, acute ischemic stroke within six hours"}}}
{"compound": "N[C@@H](CCC(=O)O)C(=O)O", "note": "[glutamate]", "values": [{"measurement": "neuronal response evoked by application", "setting": "[1]; isolated giant neurons, application/injection of substance", "result": "biphasic responses"}]}
{"compound": "NCC(=O)O", "note": "[glycine]", "values": [{"measurement": "decrease of 30 day mortality compared to placebo", "setting": "[2]", "result": 20, "unit": "%"}]}
{"compound": "glutamic acid-lysine Zn2+-arginin-glutamic acid", "values": [{"measurement": "effect on neurons depending on chain length between glutamic acid residues", "setting": "[1]; comparison among double derivatives", "result": "maximal effect"}]}
